Experimental data reported in patent US20260000645A1, “USE OF EBSELEN OR ONE OF THE DERIVATIVES THEREOF TO TREAT MITOCHONDRIAL PATHOLOGIES OR DYSFUNCTIONS” (ASSOCIATION FRANCAISE CONTRE LES MYOPATHIES, priority 2022, published 2026).

Key:
mutant yeast strain taz1 = assay: Respiratory growth in liquid culture (bioscreen, OD600); format: cell-based, Saccharomyces cerevisiae; conditions: taz1, liquid respiratory medium
Procedure: In order to determine the optimum concentration of EBS leading to the suppression of a respiratory growth defect of the mutant yeast strain, cells undergoing exponential growth were inoculated in fresh Ethanol YPA non-fermentable media supplemented or not supplemented with increasing concentrations of EBS. The growth of cells in the liquid respiratory medium was monitored using the bioscreen system over a period of 80 h during which (OD600 nm) cell densities were sampled every 20 minutes.

[1] = tested on: Cox2 protein in mutant strain taz1; assay: Accumulation of Cox2 protein (SDS-PAGE/immunoblot) in taz1; format: cell-based, Saccharomyces cerevisiae; conditions: 1 μM of EBS
Procedure: (§1) Total protein extracts from the mutant yeast strain were analyzed by SDS-PAGE ([…] per well) using antibodies against the indicated proteins. The gels shown are representative of at least 3 experiments. Protein levels were quantified using the ImageJ software. The levels of Cox2 were normalized with respect to Ade13p and expressed with respect to the wild type (WT) strain.

[2] = tested on: Cox2 protein in mutant yeast strain sym1; assay: Accumulation of Cox2 protein in sym1; format: cell-based, Saccharomyces cerevisiae; conditions: EBS 1 μM, compared to non-treated cells
Procedure: as §1
The experiments described in example 2 were implemented on the mutant yeast strain sym1.
The data are the averages ±SEM of at least three independent experiments. The significance of the variations between samples and the controls were estimated using the multi-factorial Anova: Tukey test.

mutant Pa nuo-51^A357V = assay: Growth halo of heat sensitive complex I mutant at 33° C.; format: cell-based, Podospora anserina; conditions: 20 nmoles of EBS, 4-5 days
Procedure: The strain used in the following examples contains a specific mutation modeling a human mutation in the sub-unit NDUFV1 of complex I leading to a mitochondrial illness. This strain has a growth defect at a non-permissive temperature greater than 31.5° C.
nuo-51^A357V: The mutation A357V was introduced into the gene nuo-51 of the wild type strain S along with a resistance cassette of nourseothricin (NatR). In order to mimic the human illness NDUFV1A341V, the genes NDI-1 and AOX were deactivated (El-Khoury et al., (2008) Curr Genet. 53:249-58)
The heat sensitive mutant Pa nuo-51^A357V was homogeneously spread on sterile glass beads on a square Petri dish containing a solid minimal medium (M2). Small sterile filters were then placed on the agar-agar surface and 20 nmoles of EBS were added. DMSO (the vehicle of the compound) was used as a negative control. The plate was then incubated at the non-permissive temperature of 33° C. for 4-5 days then photographed.

[3] = tested on: fibroblasts of TAZ patients; assay: Respiratory growth/proliferation of fibroblasts of TAZ patients (SRB, low glucose); format: cell-based, human
Procedure: EBS was tested for the effect thereof on the respiratory growth of fibroblasts of TAZ patients, as opposed to fibroblasts from eight different patients, carriers of mutations in the TAZ gene (suffering from Barth's syndrome).
The rate of proliferation was measured in a medium with a weak concentration of glucose (1 g/L; to force cells to use the OXPHOS system rather than glycolyse) in 384 well micro-titration plates (1200 cells/wells at T0) using the Sulforhodamine B (SRB) staining protocol at 24, 48, 72 or 96 hours after placing the cells with or without 12.15 nM of EBS.
The data are the average of 8 patients or 3 controls in triplicate, in 4 independent experiments.
The rate of proliferation was then measured under the same experimental conditions but with variable concentrations of ethaselen: The cells were analyzed 96 hours after treatment with increasing doses of ethaselen (from 150 pM to 26.1 μM). The bars represent the average of 4 replicates coming from 2 patients in 3 independent experiments.

[4] = tested on: fibroblasts of TAZ patients; assay: Mitochondrial ATP level in fibroblasts of TAZ patients (CellTiter-Glo); format: cell-based, human; conditions: EBS 12.15 nM for 96 hours
Procedure: The levels of mitochondrial ATP in the fibroblasts of TAZ patients were evaluated using a Promega CellTiter-Glo kit. The cells in 96 well plates (5000/well) were treated or not treated with 12.15 nM of EBS for 96 hours then were incubated in the presence of Antimycin A (100 μM), of Rotenone (0.5 μM) or oligomycin A (3 μM).

[5] = tested on: myoblasts of a TAZ patient; assay: Growth of myoblasts of TAZ patients (SRB, low glucose, 120 hours); format: cell-based, human
Procedure: EBS was also tested for the ability thereof to restore cell growth of a line of myoblasts from patients, carriers of mutations in the TAZ gene. The rate of proliferation was measured in a medium with a weak concentration of glucose in 384 well micro-titration plates (1200 cells/wells at T0) using the Sulforhodamine B (SRB) staining protocol at 48, 72, 96 or 120 hours after placing the cells.

HeLa KO FMC1 = assay: Proliferation of HeLa KO FMC1 cell line (SRB); format: cell-based, human; conditions: glucose 1 g/L or galactose; 96 hours; dose-dependent, wide range of concentrations (pM to μM)
Procedure: The cell line HeLa KO FMC1, mimicking human illnesses related to a deficiency of ATP synthase (NARP, MILS syndromes), were generated by the CRISPR-Cas9 method. The cell line HeLa KO FMC1 was cultivated in a DMEM medium containing 4.5 g/L of glucose and 110 mg/l of pyruvate and 50 mg/l of uridine.
The rate of proliferation of this HeLa cell line in which the gene FMC1 was deleted was measured in a medium containing either a low concentration of glucose (1 g/L), or of galactose in micro-plates of 384 wells (4500 cells/cm^2 at T0) using the Sulforhodamine B (SRB) staining protocol 96 hours after seeding and treatment of the cells. The bars represent the average of 8 replicates coming from 3 independent experiments.

[6] = Weight of KO mice lacking the TAZ gene (mouse model of Barth syndrome); format: in vivo; conditions: 10 mg/kg force-fed twice a day from age 51 days, 1 month; vs solvent
Procedure: Mice lacking the TAZ gene (KO model of Barth syndrome) or wild type (WT) gene were force-fed twice a day with 10 mg/kg of Ebselen as of an age of 51 days. The weight was regularly monitored during 1 month of treatment.

[7] = 96 hours, vs negative control DMSO

O=c1c2ccccc2[se]n1-c1ccccc1 [ebselen, 2-phenyl-1,2-benzisoselenazol-3(2H)-one]
active concentration range, lower limit (mutant yeast strain taz1): ≥ 1 nM
active concentration range, upper limit (mutant yeast strain taz1): ≤ 3 µM
optimum concentration (mutant yeast strain taz1): 1 µM
toxic concentration (mutant yeast strain taz1; 80 h): ≥ 27 µM
accumulation of the protein Cox2 [1]: increases
level of Cox2 [2]: increased
growth of the mutant (growth halo) (mutant Pa nuo-51^A357V): positive effect
toxicity concentration ([3]; 96 hours, fibroblasts of TAZ patients): > 234.9 µM
concentration range improving respiratory growth/proliferation, lower limit [3, 7]: ≥ 1.35 nM
concentration range improving respiratory growth/proliferation, upper limit [3, 7]: ≤ 8.7 µM
respiratory growth of fibroblasts of TAZ patients ([3]; EBS 12.15 nM, glucose 1 g/L, 24, 48, 72, 96 hours): improves
time after which EBS is effective ([3]; EBS 12.15 nM, more pronounced at 48, 72 and 96 hours): 24 h
mitochondrial ATP production [4]: improves
toxicity concentration [5]: > 78.3 µM
concentration range with beneficial effects on growth, lower limit ([5]; vs DMSO): ≥ 450 nM
concentration range with beneficial effects on growth, upper limit ([5]; vs DMSO): ≤ 8.7 µM
proliferation of model cells of an ATP synthase deficiency (HeLa KO FMC1): improves
weight of KO mice [6]: seemed to take on more weight
